IC50 data for 11 compounds are collected here from patent publication EP0649843B1, “THIAZOLINE DERIVATIVE” (TAISHO PHARMACEUTICAL CO. LTD, priority 1992, dated 1994).

Where a name gives a salt, the structure may show the parent alone.

For assay [1], the target named is T1, fibrinogen receptor (GpIIb/IIIa) (Homo sapiens, UniProt P05106+P08514).
T1 construct: gel filtration using Sepharose 2B column to give a blood platelet suspension; endogenous in cells; host or cells: human blood platelets (gel-filtered, from platelet rich plasma of a healthy donor)
Briefly: Human blood platelet fibrinogen binding test. The following applies: inhibition of binding of 125I labelled human fibrinogen to human blood platelet suspension; ADP final concentration 10 µM. The protocol:
The precipitate was suspended in a Tyrode's solution (20% fetal bovine serum, 2 mM Mg^2+), followed by gel filtration using Sepharose 2B column to give a blood platelet suspension (1 x 10^9/ml) apart from fibrinogen. […] The binding inhibition rate of the test drug was then calculated.

Assay [2] relates to Blood platelet aggregation. Briefly: Inhibition test of human in vitro platelet aggregation (ADP-induced). The assay is classed as cell-based. The protocol: The blood platelet counts of PRP were adjusted to (50 to 60) x 10^4/µl by diluting with PPP.
Blood platelet aggregation was determined according to the method of Born G.V.R., [Nature, vol. […] That is, a solution of the compound of Formula (I) as a test drug in dimethyl sulfoxide was adjust to the desired concentration with a physiological saline solution. 25 µl of the solution was added to 250 µl of PRP and incubated at 37°C for 3 minutes, and 25 µl of ADP (final concentration : 7 µM) was added thereto.

T1 sequence (P08514 32-887 limits assumed): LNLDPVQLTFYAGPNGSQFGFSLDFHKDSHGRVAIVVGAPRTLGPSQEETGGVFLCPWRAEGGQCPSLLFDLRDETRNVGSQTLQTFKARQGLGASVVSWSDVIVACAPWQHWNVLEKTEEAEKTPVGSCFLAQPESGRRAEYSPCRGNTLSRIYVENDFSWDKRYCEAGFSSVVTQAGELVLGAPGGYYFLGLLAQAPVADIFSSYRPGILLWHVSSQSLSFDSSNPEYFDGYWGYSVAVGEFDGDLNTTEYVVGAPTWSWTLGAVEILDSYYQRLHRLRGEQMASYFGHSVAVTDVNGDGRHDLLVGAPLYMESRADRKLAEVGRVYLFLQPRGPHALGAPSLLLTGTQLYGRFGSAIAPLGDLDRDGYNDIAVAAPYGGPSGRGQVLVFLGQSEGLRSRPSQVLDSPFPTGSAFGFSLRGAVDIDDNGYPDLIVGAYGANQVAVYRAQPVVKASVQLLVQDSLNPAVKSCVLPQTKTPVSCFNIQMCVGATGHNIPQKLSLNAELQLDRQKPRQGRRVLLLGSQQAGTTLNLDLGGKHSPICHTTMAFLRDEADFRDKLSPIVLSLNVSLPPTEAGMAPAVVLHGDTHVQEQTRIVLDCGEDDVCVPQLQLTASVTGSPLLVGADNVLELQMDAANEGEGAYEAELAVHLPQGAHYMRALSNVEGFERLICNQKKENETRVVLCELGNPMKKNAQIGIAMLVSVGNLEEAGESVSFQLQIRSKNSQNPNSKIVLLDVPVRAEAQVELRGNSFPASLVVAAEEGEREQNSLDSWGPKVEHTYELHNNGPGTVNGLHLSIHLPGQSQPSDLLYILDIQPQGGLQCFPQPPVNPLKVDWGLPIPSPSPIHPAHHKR
T1 sequence (P08514 891-1039 partner limits assumed): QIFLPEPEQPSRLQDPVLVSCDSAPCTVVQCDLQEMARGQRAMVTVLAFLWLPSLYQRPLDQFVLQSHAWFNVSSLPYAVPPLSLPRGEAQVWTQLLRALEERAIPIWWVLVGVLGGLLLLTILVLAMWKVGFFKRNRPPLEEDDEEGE
T1 sequence (P05106 27-788): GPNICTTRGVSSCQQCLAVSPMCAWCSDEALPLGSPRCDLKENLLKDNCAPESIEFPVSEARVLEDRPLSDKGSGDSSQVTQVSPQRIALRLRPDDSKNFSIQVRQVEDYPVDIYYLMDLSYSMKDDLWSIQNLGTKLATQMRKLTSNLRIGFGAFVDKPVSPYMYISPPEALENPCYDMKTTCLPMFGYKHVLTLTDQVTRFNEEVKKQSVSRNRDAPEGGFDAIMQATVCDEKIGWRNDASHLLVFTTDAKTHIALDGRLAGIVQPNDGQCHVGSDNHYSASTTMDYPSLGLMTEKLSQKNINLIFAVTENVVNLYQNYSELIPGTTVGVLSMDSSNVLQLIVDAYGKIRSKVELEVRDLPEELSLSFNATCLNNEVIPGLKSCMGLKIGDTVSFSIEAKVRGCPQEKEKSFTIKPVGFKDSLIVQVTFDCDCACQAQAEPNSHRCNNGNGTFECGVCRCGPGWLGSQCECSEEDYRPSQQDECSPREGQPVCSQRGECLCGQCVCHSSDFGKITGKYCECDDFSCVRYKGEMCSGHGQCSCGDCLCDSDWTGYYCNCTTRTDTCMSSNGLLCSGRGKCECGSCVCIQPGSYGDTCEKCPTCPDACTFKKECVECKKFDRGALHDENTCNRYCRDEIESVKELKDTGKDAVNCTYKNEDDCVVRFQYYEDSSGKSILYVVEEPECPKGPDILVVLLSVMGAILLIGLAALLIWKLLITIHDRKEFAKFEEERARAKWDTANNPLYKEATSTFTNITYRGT

As usually defined, the IC50 is the concentration that inhibits the measured activity by half. On to `Cc1c(C(=O)NCCC(=O)O)sc(=NC(=O)c2ccc(C(=N)N)cc2)n1C` [Compound 5, N-(2-carboxyethyl)-2-(4-amidinobenzoylimino)-3,4-dimetylthiazoline-5-carboxamide hydrobromide], for which the 50% inhibitory concentration (IC50) in assay [1] came out at 0.0051 µM; in assay [2] (Homo sapiens, Platelet, 0.05 h), 0.017 µM.

As for `Cc1c(C(=O)NCCC(=O)O)sc(=NC(=O)c2ccc(C(=N)N(C)Cc3ccccc3)cc2)n1C` [Compound 35, N-(2-carboxyethyl)-2-[4-(N-methyl-N-benzylamidino)benzoylimino]-3,4-dimethyl-3H-thiazoline-5-carboxamide hydrobromide], in assay [1], the IC50 is 0.001 µM.

In the case of `CNC(=N)c1ccc(C(=O)N=c2sc(C(=O)NCCC(=O)O)c(C)n2C)cc1` [Compound 7, N-(2-carboxyethyl)-2-[4-(N-methylamidino)benzoylimino]-3,4-dimethyl-3H-thiazoline-5-carboxamide hydrobromide], the 50% inhibitory concentration (IC50) in assay [1] was 0.0027 µM. In assay [2] (Homo sapiens, Platelet, 0.05 h), `Cc1c(C(=O)NCCC(=O)O)sc(=NC(=O)c2ccc(C(=N)N)cc2)n1C(C)C` [Compound 27] came in with a half-inhibitory concentration (IC50) of 0.015 µM. With `Cc1c(C(=O)NCCC(=O)O)sc(=NC(=O)c2ccc(C(=N)Nc3ccccc3)cc2)n1C` [Compound 31, N-(2-carboxyethyl)-2-[4-(N-phenylamidino)benzoylimino]-3,4-dimethyl-3H-thiazoline-5-carboxamide hydrobromide], the half-maximal inhibitory concentration (IC50) in assay [2] (Homo sapiens, Platelet, 0.05 h) is 0.02 µM.

Take `Cc1c(C(=O)NCCC(=O)O)sc(=NC(=O)c2ccc(C(=N)N)cc2)n1Cc1ccccc1` [Compound 17]: the 50% inhibitory concentration (IC50) in assay [2] (Homo sapiens, Platelet, 0.05 h) was 0.019 µM. Same read-out and setting: the same measure for `CCCCn1c(C)c(C(=O)NCCC(=O)O)sc1=NC(=O)c1ccc(C(=N)N)cc1` [Compound 22]: 0.018 µM. Turning to “3-[3-(4-amidinobenzoyl)benzamide]propionic acid [Control, reference compound]”, the IC50 is 0.0844 µM in assay [1] and 0.105 µM in assay [2] (concentration causing 50% inhibition of the maximum aggregation, human PRP, ADP final concentration 7 µM, incubated at 37°C for 3 minutes). As for `COC(=O)CCNC(=O)c1sc(=NC(=O)c2ccc(C#N)cc2)n(C(C)C)c1C` [Compound 23], in assay [1], the IC50 came out at 0.0063 µM. Regarding `Cc1c(C(=O)NCCC(=O)O)sc(=NC(=O)c2ccc(C(=N)NCc3ccccc3)cc2)n1C` [Compound 29], the IC50 in assay [1] was found to be 0.0079 µM; in assay [2] (Homo sapiens, Platelet, 0.05 h), 0.014 µM.

Take `Cc1c(C(=O)NCCC(=O)O)sc(=NC(=O)c2ccc(C(=N)N(C)C)cc2)n1C` [Compound 37, N-(2-carboxyethyl)-2-[4-(N,N-dimethylamidino)benzoylimino]-3,4-dimethyl-3H-thiazoline-5-carboxamide hydrobromide]: the concentration for half-maximal inhibition (IC50) in assay [1] amounted to 0.0013 µM.
